In patent publication US11033572B2, “Molecular adjuvants for enhanced cytosolic delivery of active agents” (Universiteit Gent, priority 2017, dated 2021):
Structures can show the parent of a compound that is named as a salt.

Tests used:
Assay type in all cases: cell-based
H1299_eGFP cells [1] = assay: siNG transfection and sequential adjuvant treatment, eGFP silencing by flow cytometry; conditions: for adjuvant effect on siNG-mediated eGFP silencing: sequential treatment 10, 20 or 40 μM, 20 h, siNGs 2 nM siRNA; for cellular siRNA delivery promoting effect: β2 agonists, 10, 20, 40 μM, 20 h after siNGs
H1299_eGFP cells [2] = assay: Cell viability following CAD incubation (CellTiter GLO); conditions: for concentration with significant additional cytotoxicity compared to siNGs alone: human, 20 h
Protocol: The silencing potential of siPLK1-NGs was established through evaluating the cell viability. Hereto, we applied the CellTiter GLO® assay (Promega, Belgium) according to the manufacturer's guidelines. Before initiating the assay, the culture plates and reconstituted assay buffer were placed at room temperature for 30 minutes. Next, the culture medium was replaced by 250 μL fresh cell medium and an equal volume of assay buffer was added. To induce complete cell lysis, the plates were shaken during 2 minutes and the signal was allowed to stabilize the following 10 minutes. 100 μL from each well was subsequently transferred to an opaque 96-well plate, which was measured with a GloMax® 96 Microplate Luminometer (Promega, Belgium). Three biological replicates were performed and data are expressed as the mean cell viability±SEM.
Please note that we only applied siCTRL-loaded NGs in this set of experiments. With the interest of evaluating the possible effect of our treatment on cell viability, the CellTiter GLO® assay was performed as described above. Again, three biological replicates were performed and data are expressed as the mean±SEM.

H1299_eGFP cells [3] = assay: Side scatter (cellular granularity) by flow cytometry
Protocol: For silencing experiments, H1299_eGFP cells were seeded in 24 well plates at a density of 35000 cells/well and were allowed to settle overnight. Subsequently, the cells were transfected and treated with small molecular adjuvants as described previously. Note that for every siEGFP or siPLK1 condition an siCTRL sample was included to account for potential off target effects. SiNG-mediated eGFP silencing was determined by flow cytometry. […] The cells were collected, centrifuged during 5 minutes at 300 g, resuspended in 300 μL flow buffer and kept on ice until analysis. For each sample the forward and side scatter as well as the green fluorescent signal were measured for at least 5000 cells.

H1299_WT cells = assay: Phospholipidosis detection with LipidTOX Red; conditions: 20 h incubation
Protocol: H1299_WT cells were seeded and allowed to settle overnight as detailed previously. Next, the cells were incubated with a mixture of a 1/1000 dilution of the LipidTOX™ red phospholipidosis detection reagent (Thermo Fisher Scientific, USA) and the desired CAD in complete cell medium. Upon 20 hour incubation, the cells were fixed with 4% PFA and stored at 4° C. covered in Vectashield antifade mounting medium containing DAPI. Imaging occurred with a LSCM and a 100× oil immersion objective. DAPI and the LipidTOX™ red phospholipidosis dye were respectively excited with the 408 nm and 561 nm laser lines and the signal intensity was determined with Image J in minimum 30 cells from 5 images per condition.

[4] = relative to the first four CADs

OCc1cc(C(O)CNCCCCCCOCCCCc2ccccc2)ccc1O (stereo not shown) [(18) Salmeterol, Salmeterol]
adjuvant effect on siNG-mediated eGFP silencing (H1299_eGFP cells [1]): significant additional silencing
cellular siRNA delivery promoting effect (H1299_eGFP cells [1]): significantly improve cellular siRNA delivery
concentration with significant additional cytotoxicity compared to siNGs alone (H1299_eGFP cells [2]): ≥ 20 µM

COc1ccccc1OCCNCC(O)COc1cccc2[nH]c3ccccc3c12 (stereo not shown) [(26) Carvedilol, Carvedilol]
adjuvant effect on siNG-mediated eGFP silencing (H1299_eGFP cells [1]): significant additional silencing
cytotoxicity versus sum of separate components (H1299_eGFP cells [2]; 40 μM sequential to siNG): exceed the sum of the effects from each separate component
cytotoxicity ranking, CAD treatment alone (H1299_eGFP cells [2]; 10-40 μM, no siNG): most cytotoxic

CNCCC=C1c2ccccc2CCc2ccccc21.Cl [(55) Nortriptyline hydrochloride, Nortriptyline hydrochloride]
adjuvant effect on siNG-mediated eGFP silencing (H1299_eGFP cells [1]): significant additional silencing
concentration with significant additional cytotoxicity compared to siNGs alone (H1299_eGFP cells [2]): 40 µM

CC(C)(C)c1ccc(C(O)CCCN2CCC(C(O)(c3ccccc3)c3ccccc3)CC2)cc1 (stereo not shown) [(56) Terfenadine, Terfenadine]
effect on % eGFP expression compared to siNGs alone (H1299_eGFP cells [1]; 1, 2, 3, 4 or 5 μM): significantly reduce eGFP expression
concentration required for silencing effect (H1299_eGFP cells [1]; [4]): substantially lower concentrations were required

CCc1cc2c(cc1CC)CC(NCC(O)c1ccc(O)c3[nH]c(=O)ccc13)C2 (stereo not shown) [(57) Indacaterol maleate, Indacaterol maleate]
cellular siRNA delivery promoting effect (H1299_eGFP cells [1]): significantly improve cellular siRNA delivery

CCN(CC)CCCC(C)Nc1ccnc2cc(Cl)ccc12 (stereo not shown) [Chloroquine, chloroquine]
adjuvant effect on siNG-mediated eGFP silencing (H1299_eGFP cells [1]): enhances gene silencing to a similar extent as the initial molecules tested
adjuvant effect on siNG-mediated eGFP silencing (H1299_eGFP cells [1]; listed as CLQ): improves the silencing potential of the siNGs to a similar extent

CCCCCCCC/C=C\CCCCCCC(O)C(=O)O (stereo not shown) [Compound 2-OHOA, 2-hydroxy oleic acid]
effect on gene silencing in combination (H1299_eGFP cells [1]; 300 μM 2OHOA combined with 10 μM DL): additive effect

CCN(CC)CCO[C@H]1CC[C@@]2(C)C(=CC[C@@H]3[C@@H]2CC[C@]2(C)C(=O)CC[C@@H]32)C1 [Compound U18666A, U18666A]
effect on siNG-mediated gene silencing (H1299_eGFP cells [1]; 30 μM): clearly improved siNG-mediated gene silencing
increase in SSC signal (H1299_eGFP cells [3]; siNG transfection then 30 μM): 2 fold

Br.COc1ccc2c(c1)[C@]13CCCC[C@@H]1[C@H](C2)N(C)CC3 [Dextromethorphan hydrobromide, monohydrate]
higher concentration required to obtain similar silencing effects (H1299_eGFP cells [1]; [4]): 10 fold
adjuvant effect on siNG-mediated eGFP silencing (H1299_eGFP cells [1]): does not influence gene silencing
concentration significantly augmenting the SSC signal (H1299_eGFP cells [3]; after siNG transfection): > 80 µM
LipidTOX Red phospholipid signal (H1299_WT cells): only higher doses

COc1ccc(CC(C)NCC(O)c2ccc(O)c(NC=O)c2)cc1 (stereo not shown) [formoterol, formoterol fumarate hemisulfate]
cellular siRNA delivery promoting effect (H1299_eGFP cells [1]): do not qualify as siRNA delivery enhancers

salbutamol hemisulfate
cellular siRNA delivery promoting effect (H1299_eGFP cells [1]): do not qualify as siRNA delivery enhancers
